The record followed here is patent US7266458B2, “BioMAP analysis” (Bioseek, Inc., priority 2000, dated 2007).

For series [1], the system named is human umbilical vein endothelial cells (HUVEC). Nature of the series: Optimized inflammatory assay combination (IL-1+TNF-α+IFN-γ) with added agents, cell-based ELISA biomap. The settings on record: for biomap in the optimized assay combination: 10 μM NHGA, 200 YM PDTC, 9 μM PD098059, 125-500 μM ibuprofen, TNF-α+IFN-γ+IL-1, 24 hours; for reference biomaps compared by pattern similarity and cluster analysis: hierarchical clustering, FIG. 4C. The procedure:
After 24 hours, cultures are washed and evaluated for the cell surface expression of ICAM-1 (1), VCAM-1 (2), E-selectin (3), IL-8 (4), CD31 (5), HLA-DR (6) and MIG (7) by cell-based ELISA performed as described above.
Confluent cultures of HUVEC cells are treated with TNF-α (5 ng/ml)+IFN-γ (100 ng/ml)+IL-1 (1 ng/ml) in the presence or absence of agents or buffers at the concentrations indicated in Table 1. Compounds are obtained from commercial sources and prepared in a suitable buffer (water, base media, DMSO, methanol or ethanol). After 24 hours, cultures are washed and evaluated for the cell surface expression of ICAM-1 (1), VCAM-1 (2), E-selectin (3), IL-8 (4), CD31 (5), HLA-DR (6) and MIG (7) by cell-based ELISA performed as described above. A color-coded representation of the resulting biomaps developed from the data is shown. […] Control assay combinations for each agent include an appropriate concentration of the diluent buffer.
Readout patterns are analyzed by hierarchical clustering techniques, and are visualized as a tree diagram in which a) each terminal branch point represents the readout pattern from one assay combination in one experiment; b) the length of the vertical distance from the upper horizontal line (no change and control patterns) to the termini are related to the extent of difference in the readout pattern from the control environment pattern; and c) the distance along, the branches from one terminal pattern value to another reflects the extent of difference between them. Similar patterns are thus clustered together.

Series [2] has the same test system. Nature of the series: Multiplex assay combinations for distinguishing mechanism of action (single cytokines, activating anti-p55). The format is cell-based. The settings on record: 20 μM AA861, 10 μM NHGA. The procedure:
Confluent cultures of HUVEC cells are treated with TNF-α (5 ng/ml), IFN-γ (100 ng/ml), IL-1 (20 ng/ml), the combination of TNF-α+IFN-γ+IL-1, or media (no cytokine) in the presence or absence of neutralizing anti-TNF-α, 20 μM AA861 or 10 μM NHGA. After 24 hours, cultures are washed and evaluated for the cell surface expression of ICAM-1 (1), VCAM-1 (2), E-selectin (3), IL-8 (4), and MIG (5) by cell-based ELISA performed as described in Example 1. A graphical representation of the resulting biomaps derived from the data is shown in FIG. 5, coded as described above.
Confirmation is performed by evaluating the test agent in assay combinations that include both physiologic and alternative pathway activators. Confluent cultures of HUVEC cells are treated with TNF-α (5 ng/ml), IL-1 (20 ng/ml), an activating antibody against the TNF-α receptor p55, or media. After 24 hours, cultures are washed and evaluated for the cell surface expression of ICAM-1 (1), VCAM-1 (2), E-selectin (3), CD31 (4), and MIG (5) by cell-based ELISA performed as described above. A graphical representation of the resulting biomap, prepared from the data is shown in FIG. 6, coded as described above.

For series [3] the test system is unchanged. Briefly: Apoptosis assay panel (ceramide, TNF-α) with LDH release and cell-based ELISA. The settings on record: factor added to endothelial cell cultures, vs basal conditions. Background: Release of lactate dehydrogenase indicates damage to the cell membrane.
Description: A panel of assay combinations that reproduces aspects of the response of the endothelial cells to inflammatory processes and stimuli enhancing apoptosis is used.
Retroviral vectors derived from the MSCV-based pMSCVneo vector (Clontech) are used to express genes in the cultured endothelial cells. […] Test genes are inserted downstream of the MSCV LTR, the marker gene is the enhanced green fluorescent protein (GFP) and the IRES is 600 bp fragment from EMCV virus (Jang, J. Virol. 63:1651, 1989). […] Retroviral vector plasmid DNA is transfected into AmphoPack-293 cells (Clontech) by modified calcium phosphate method according to manufacturer's protocol (MBS transfection kit, Stratagene). Cell supernatants are harvested 48 hours post-transfection, filtered to remove cell debris (0.45 pm) and transferred onto exponentially growing HUVEC cells. DEAE dextran (conc lopg/ml) is added to facilitate vector transduction. After a 5-8 hour incubation period viral supernatants are removed and cells cultured for an additional 40 hours. Gene transfer efficiency is determined by FACS, and is typically ≧80 percent. […] After 24 hours, transduced cells are evaluated for the surface expression ICAM-1 (1), VCAM-1 (2), and MIG (3) by cell-based ELISA for biomap analysis. For the expanded biomap, cell supernatants at 24 hours are collected and analyzed for the presence of LDH (4).
The test system is the same in series [4]. It counts as cell-based. The arrangement: key: Active BioMap profiles (indicated as “yes”) were significantly different from the profile obtained with the control vector; BioMAP profiles that were not different from control vector are indicated as “—”. Particulars: NFkB Pathway genes; TNF-alpha, IL-1, IFN-gamma individually or in combination; vs control vector, p < 0.05, n = 3.
Protocol: High-titer retrovirus preparations are generated by transient transfection of vector construct into a retroviral packaging cell line (AmphoPack-293;Clontech). […] Expression of BioMAP markers (ICAM-1, VCAM, etc.) is measured by a cell-based ELISA technique (Melrose, 1998, supra) that has been optimized such that changes in expression levels of >20% can be routinely detected as statistically significant effects (p<0.05). […] Cells were stained with the NGFr specific monoclonal antibody (Chemicon).
In the lower two panels IFN-gamma was added to all samples. Average values (ELISA OD) from triplicate samples are shown, error bars indicate standard deviation. Control is HUVEC transduced with the “empty” vector, which only encodes NGFr marker. Data are from a representative experiment. Results were reproduced in at least two experiments with HUVEC cells from different donors.
Gene over-expression vectors were generated for many members of the NFκB and Jak/STAT pathways, and measured BioMAP profiles in transduced HUVEC cells by a cell-based ELISA technique (Melrose, 1998, supra), in the presence of TNF-alpha, IL-1, IFN-gamma, individually or in combination. […] Average values (ELISA OD) from triplicate samples are shown. Control (_-_) is HUVEC transduced with the “empty” retroviral vector, which only encodes NGFr marker. Data shown are from a representative experiment.

For series [5] the test system is unchanged. Nature of the series: Morpholino antisense in HUVEC, cell surface expression by flow cytometry. The format is cell-based. An excerpt: Morpholino phosphorodiamidate (MF) antisense oligonucleotides are used. Other chemical classes of antisense oligonucleotides that can be substituted for morpholinos include but are not limited to phosphorotioate oligonucleotides, N3′-P5′ phosphoramidate oligonucleotides (NP), locked nucleic acid (LNA), 2′-O-methoxyethyl nucleic acid (MOE), 2′-fluoro-arabinonucleic acid (FANA), peptide nucleic acids (PNA) (reviewed in Toulme, Nature Biotech. 19:17, 2001); siRNA (Elbashir et al. (2000) Nature 411:494-498); ribozymes (Kawasaki et al. (2002) Nat. Biotech 20:376-380); standard antisense (Veres et al. (1998) J. Virol. 72:1894-1901). In the present example, antisense oligonucleotides for TNF-R1 (p55) (5′-[…]-3′)(SEQ ID NO:1), and the beta-globin control oligo (5′-[…]-3′)(SEQ ID NO:2) (Gene Tools Inc.) are used. The transfection mixture is prepared by mixing […] of 200 mM EPEI (Ethoxylated PolyEthylenlmine), vortexed, incubated at room temperature for 20 minutes, and then mixed with 3.5 ml of serum-free media to give a final 0.6 μM morpholino concentration.
HUVEC cells are plated the day before in 24-well plates at 4-6×10e4 cells/well. Cells are washed once with serum-free media and incubated with 0.4 ml of the morpholino transfection mixture at 37° C. for 3 hours. Morpholino is removed, regular media ([…] Growth Media with 2% fetal calf serum, Clonetics) is added and cells allowed to recover overnight. The efficiency of loading of cells with morphino is monitored in cells incubated with a fluorescent morpholino, and is typically essentially 100 percent. HUVEC cells are then treated with either TNF-α (0.5 ng/ml), or IL-1 (1 ng/ml), or media only. After 4 hours, cells are harvested and evaluated for the cell surface expression of ICAM-1 (1), VCAM-1 (2), E-selectin (3), and CD31 (4) by flow cytometry. […] The TNF-R1 antisense specifically blocks induction of ICAM-1 and VCAM-1 by TNF-α, while it has no effect on induction of the same markers by the independent cell surface receptor for IL-1.
On the technique in general: Flow cytometry measures light scatter and fluorescence of single cells or particles in a stream.

The test system is the same in series [6]. Briefly: HUVEC treated with proinflammatory cytokines, readout parameters by cell-based ELISA. Particulars: HUVEC cultured with cytokine(s) 24 hours, vs basal medium. (ELISA stands for enzyme-linked immunosorbent assay.)
Protocol: Primary human umbilical vein endothelial cells (HUVEC) are used. […] 2×10^4 cells/ml are cultured to confluence in EGM-2 (Clonetics).
After 24 hours, cultures are washed and evaluated for the presence of the parameters ICAM-1 (1), VCAM-1 (2), E-selectin (3), IL-8 (4), CD31 (5), HLA-DR (6) and MIG (7) by cell-based ELISA as described (Melrose, J. Immunol. 161:2457, 1998). For this, plates are blocked with 1% Blotto for 1 hr, and treated with primary antibodies (obtained from Pharmingen and Becton Dickinson) at 1 ng/ml for 2 hr. After washing, secondary peroxidase-conjugated anti-mouse IgG antibody (Promega) at 1:2500 is applied for 45 min. After washing, TMB substrate (Kierkegaard & Perry) is added and color developed. Development is stopped by addition of H2SO4 and the absorbance at 450 nm (subtracting the background absorbance at 600 nm) is read with a Molecular Dynamics plate reader. The relative expression levels of each parameter are indicated by the OD at 450 nm shown along the y-axis. The mean +/−SD from triplicate samples is shown.
After 24 hours, cultures are washed and evaluated for the presence of the parameters ICAM-1 (1), VCAM-1 (2), E-selectin (3), IL-8 (4), CD31 (5), HLA-DR (6) and MIG (7) by cell-based ELISA performed as described above, and are reported as the OD at 450 nm. The mean +/−SD from triplicate samples are shown. * indicates p<0.05 comparing results obtained with the two separate conditions.
The mark [7] stands for this setting: 0.6 μM morpholino, IL-1 1 ng/ml, 4 hours.
Setting [8] is: 0.6 μM morpholino, TNF-α 0.5 ng/ml, 4 hours.

Take `S=C(S)N1CCCC1` [PDTC, pyrrolidine dithiocarbamate]: in series [1], the “biomap in the optimized assay combination” value is listed as “altered biomaps”; the “reference biomaps compared by pattern similarity and cluster analysis” value was “have similar reference biomaps and cluster together”.

As to `CC(C)Cc1ccc(C(C)C(=O)O)cc1` (stereo not drawn) [ibuprofen], in series [1], the “biomap in the optimized assay combination” value is “visually different representations of biomaps”.

Take `CC(Cc1ccc(O)c(O)c1)C(C)Cc1ccc(O)c(O)c1` (stereo not drawn) [NHGA, nordihydroguaiaretic acid]: in series [1], the “biomap in the optimized assay combination” value is given as “altered biomaps”; the “reference biomaps compared by pattern similarity and cluster analysis” value is “have similar reference biomaps and cluster together”. Moreover, the “cytokine signaling pathways targeted in the panel” value in series [2] was “target multiple cytokine signaling pathways”.

For `COc1cccc(-c2cc(=O)c3ccccc3o2)c1N` [PD098059], in series [1], the “biomap in the optimized assay combination” value is reported as “altered biomaps”; the “reference biomaps compared by pattern similarity and cluster analysis” value is “remain in the same cluster”.

On to ceramide, for which, in series [3], the “cell damage as release of cytoplasmic lactate dehydrogenase into the supernatant” value was “enhanced”.

In the case of TNFA, the BioMAP readout result in series [4] is recorded as “yes”.

As for `C[C@]12C=CC(=O)C=C1CC[C@@H]1[C@@H]2[C@@H](O)C[C@@]2(C)[C@H]1CC[C@]2(O)C(=O)CO` [prednisolone], the “reference biomaps compared by pattern similarity and cluster analysis” value in series [1] is “related reference biomaps that are distinct from those of NFκB pathway inhibitors”.

Consider `O=c1cc(-c2ccc(O)cc2)oc2cc(O)cc(O)c12` [apigenin], for which, in series [1], the “reference biomaps compared by pattern similarity and cluster analysis” value is “have similar reference biomaps and cluster together”.

Take “TNF-R1 antisense: morpholino antisense oligonucleotide for TNF-R1 (p55), 5′-AGGTCAGGCACGGTGGAGAGGC-3′ (SEQ ID NO:1) (all phosphorodiamidate morpholino (PMO))”: the “biomap vs control oligo biomap upon treatment with TNF-α” value in series [5] was “altered biomap”. For the same molecule, in series [5] (setting [7]), the “induction of ICAM-1 by IL-1” value is given as “no effect” and the “induction of VCAM-1 by IL-1” value is “no effect”. For the same molecule, in series [5] (setting [8]), the “induction of ICAM-1 by TNF-α” value is recorded as “blocks” and the “induction of VCAM-1 by TNF-α” value is listed as “blocks”.

On to `O=C(NC1=CC(=O)c2ccccc2C1=O)c1ccccc1` [PPM-18], for which, in series [1], the “reference biomaps compared by pattern similarity and cluster analysis” value was “have similar reference biomaps and cluster together”.

B1: IFN-γ: cytokine added to HUVEC (protein)
chain: QDPYVKEAENLKKYFNAGHSDVADNGTLFLGILKNWKEESDRKIMQSQIVSFYFKLFKNFKDDQSIQKSVETIKEDMNVKFFNSNKKKRDDFEKLTNYSVTDLNVQRKAIHELIQVMAELSPAAKTGKRKRSQMLFRGRRASQ
For the molecule B1, the ICAM-1 level entry in series [6] (TNF-α 5 ng/ml, IFN-γ 100 ng/ml, IL-1 1 ng/ml) was “increased”. In series [6], the HLA-DR level result is given as “increased” and the MIG level result is listed as “increased”.
